Source: ChEMBL document CHEMBL4041522, “Comprehensive review on various strategies for antimalarial drug discovery” (2017)

How the values were obtained:
Type in all cases: functional
[1] = In vivo antiparasitic activity against Pneumocystis sp. assessed as parasite clearance time
[2] = In vivo antiparasitic activity against Babesia sp. assessed as parasite clearance time
Plasmodium [3] = experiment: In vivo antiparasitic activity against Plasmodium sp. assessed as fever clearance time
[4] = In vivo antiparasitic activity against Babesia sp. assessed as fever clearance time
[5] = In vivo antiparasitic activity against Toxoplasma sp. assessed as parasite clearance time
[6] = In vivo antiparasitic activity against Toxoplasma sp. assessed as fever clearance time
Plasmodium [7] = experiment: In vivo antiparasitic activity against Plasmodium sp. assessed as parasite clearance time
[8] = In vivo antiparasitic activity against Pneumocystis sp. assessed as fever clearance time

**Q.** Which Time [1] does the source give for CCC[C@@H]1C[C@@H](C(=O)N[C@@H]([C@H]2O[C@H](SC)[C@H](O)[C@@H](O)[C@H]2O)[C@H](C)Cl)N(C)C1 [CLINDAMYCIN] here?
**A.** 4 to 6 days

**Q.** And the Time [2]?
**A.** 4 to 6 days

**Q.** And the Time (Plasmodium [3])?
**A.** 3 to 5 days

**Q.** What about the Time [4] of the same molecule?
**A.** 3 to 5 days

**Q.** What about the Time [5] of the same molecule?
**A.** 4 to 6 days

**Q.** And the Time [6]?
**A.** 3 to 5 days

**Q.** And the Time (Plasmodium [7])?
**A.** 4 to 6 days

**Q.** And the Time [8]?
**A.** 3 to 5 days
